Experiments:
Conditions in all cases: human; call rule not given here
Hepatotoxicity [1] = assay: FDA HLAED, gamma-glutamyl transferase (GGT) increase
Hepatotoxicity [2] = assay: FDA HLAED, serum glutamic oxaloacetic transaminase (SGOT) increase
Hepatotoxicity [3] = assay: FDA HLAED, lactate dehydrogenase (LDH) increase
Hepatotoxicity [4] = assay: FDA HLAED, liver enzyme composite activity
Hepatotoxicity [5] = assay: FDA HLAED, alkaline phosphatase increase
Hepatotoxicity [6] = assay: FDA HLAED, serum glutamic pyruvic transaminase (SGPT) increase

SMILES | GGT Increase - Activity Score (Hepatotoxicity [1]) | GGT Increase - Index Value (Hepatotoxicity [1]) | GGT Increase - Number of Reports (Hepatotoxicity [1]) | SGOT Increase - Activity Score (Hepatotoxicity [2]) | SGOT Increase - Index Value (Hepatotoxicity [2]) | SGOT Increase - Number of Reports (Hepatotoxicity [2]) | LDH Increase - Activity Score (Hepatotoxicity [3]) | LDH Increase - Index Value (Hepatotoxicity [3]) | LDH Increase - Number of Reports (Hepatotoxicity [3]) | Composite Activity - Active (Hepatotoxicity [4]) | Composite Activity - Marginal (Hepatotoxicity [4]) | Composite Activity - Score (Hepatotoxicity [4]) | Alkaline Phosphatase Increase - Activity Score (Hepatotoxicity [5]) | Alkaline Phosphatase Increase - Index Value (Hepatotoxicity [5]) | Alkaline Phosphatase Increase - Number of Reports (Hepatotoxicity [5]) | SGPT Increase - Activity Score (Hepatotoxicity [6]) | SGPT Increase - Index Value (Hepatotoxicity [6]) | SGPT Increase - Number of Reports (Hepatotoxicity [6]) | also measured
CC(C)N1CCN(c2ccc(OCC3COC(Cn4cncn4)(c4ccc(Cl)cc4Cl)O3)cc2)CC1 (stereo unspecified) [TERCONAZOLE] | Inactive | 0 | < 4 | Inactive | 0 | < 4 | Inactive | 0 | < 4 | 0 | 0 | Inactive | Inactive | 0 | < 4 | Inactive | 0 | < 4 | –
CC(C)(C)c1ccc(C(O)CCCN2CCC(C(O)(c3ccccc3)c3ccccc3)CC2)cc1 (stereo unspecified) [TERFENADINE] | Inactive | 0.1 | < 4 | Inactive | 0.7 | >= 4 | Inactive | 0.2 | < 4 | 0 | 0 | Inactive | Inactive | 0.6 | >= 4 | Inactive | 0.7 | >= 4 | –
C[C@]12CC[C@H]3[C@@H](CCC4=CC(=O)CC[C@@]43C)[C@@H]1CC[C@@H]2OC(=O)CCC1CCCC1 [TESTOSTERONE CYPIONATE] | Inactive | 4.8 | < 4 | Inactive | 4.8 | < 4 | Inactive | 2.4 | < 4 | 0 | 0 | Inactive | Inactive | 0 | < 4 | Inactive | 7.2 | < 4 | –
CCCCCCC(=O)O[C@H]1CC[C@H]2[C@@H]3CCC4=CC(=O)CC[C@]4(C)[C@H]3CC[C@]12C [TESTOSTERONE ENANTHATE] | Inactive | 4.8 | < 4 | Inactive | 4.8 | < 4 | Inactive | 2.4 | < 4 | 0 | 0 | Inactive | Inactive | 0 | < 4 | Inactive | 7.2 | < 4 | –
CCCCCCCCCC(=O)CC(=O)O[C@H]1CC[C@H]2[C@@H]3CCC4=CC(=O)CC[C@]4(C)[C@H]3CC[C@]12C [TESTOSTERONE KETOLAURATE] | Inactive | 4.8 | < 4 | Inactive | 4.8 | < 4 | Inactive | 2.4 | < 4 | 0 | 0 | Inactive | Inactive | 0 | < 4 | Inactive | 7.2 | < 4 | –
C[C@]12CC[C@H]3[C@@H](CCC4=CC(=O)CC[C@@]43C)[C@@H]1CC[C@@H]2OC(=O)Cc1ccccc1 [TESTOSTERONE PHENYLACETATE] | Inactive | 4.8 | < 4 | Inactive | 4.8 | < 4 | Inactive | 2.4 | < 4 | 0 | 0 | Inactive | Inactive | 0 | < 4 | Inactive | 7.2 | < 4 | –
CCC(=O)O[C@H]1CC[C@H]2[C@@H]3CCC4=CC(=O)CC[C@]4(C)[C@H]3CC[C@]12C [TESTOSTERONE PROPIONATE] | Inactive | 4.8 | < 4 | Inactive | 4.8 | < 4 | Inactive | 2.4 | < 4 | 0 | 0 | Inactive | Inactive | 0 | < 4 | Inactive | 7.2 | < 4 | –
C[C@]12CC[C@H]3[C@@H](CCC4=CC(=O)CC[C@@]43C)[C@@H]1CC[C@@H]2O [TESTOSTERONE] | Inactive | 4.8 | < 4 | Inactive | 4.8 | < 4 | Inactive | 2.4 | < 4 | 0 | 0 | Inactive | Inactive | 0 | < 4 | Inactive | 7.2 | < 4 | –
Cn1c(=O)c2[nH]cnc2n(C)c1=O.O [THEOPHYLLINE] | Inactive | 0 | < 4 | Inactive | 0 | < 4 | Inactive | 0 | < 4 | 0 | 0 | Inactive | Inactive | 0 | < 4 | Inactive | 0 | < 4 | –
Clc1ccccc1CN1CCc2sccc2C1 [TICLOPIDINE] | Inactive | 0 | < 4 | Inactive | 0 | < 4 | Inactive | 0 | < 4 | – | – | – | Inactive | 0 | < 4 | Inactive | 0 | < 4 | Composite Activity - Active (Hepatotoxicity [4]; Liver): 0; Composite Activity - Marginal (Hepatotoxicity [4]; Liver): 0; Composite Activity - Score (Hepatotoxicity [4]; Liver): Inactive
CC(C)(C)NC[C@H](O)COc1nsnc1N1CCOCC1 [TIMOLOL] | Inactive | 0 | < 4 | Inactive | 0.1 | < 4 | Inactive | 0.1 | < 4 | 0 | 0 | Inactive | Inactive | 0.1 | < 4 | Inactive | 0.1 | < 4 | –
Clc1ccc(C(Cn2ccnc2)OCc2ccsc2Cl)c(Cl)c1 (stereo unspecified) [TIOCONAZOLE] | Inactive | 0 | < 4 | Inactive | 0 | < 4 | Inactive | 0 | < 4 | – | – | – | Inactive | 0 | < 4 | Inactive | 0 | < 4 | Composite Activity - Active (Hepatotoxicity [4]; Liver): 0; Composite Activity - Marginal (Hepatotoxicity [4]; Liver): 0; Composite Activity - Score (Hepatotoxicity [4]; Liver): Inactive

Reference: ChEMBL document CHEMBL1697781, “Assessment of the health effects of chemicals in humans: II. Construction of an adverse effects database for QSAR modeling” (Curr Drug Discov Technol, 2004)
